In US20090005374A1, “IMIDAZOPYRIDINYL THIAZOLYL HISTONE DEACETYLASE INHIBITORS” (priority 2007, published 2009):
pIC50: −log10 of the molar value. Blank lines part the entries; values can stand above or below the molecule they belong to.

Key:
HDAC 1 [1] = molecular target: T1, HDAC 1 (Homo sapiens, UniProt Q13547); assay: HDAC 1 fluorogenic peptide substrate assay with 3-hour enzyme/compound preincubation; format: biochemical; settings: 3-hour preincubation of enzyme and compound; read-out: HDAC 1 inhibitory activity (IC50) 3-hour preincubation
Procedure: (§1) The second assay is similar to the first assay described above, except that preincubation is carried out for about 3 hours after the enzyme is introduced. The test compound was suspended in, and titrated in DMSO. It was then spotted into a 384-well test plate. The enzyme, HDAC 1 or 6, was diluted in the same assay buffer as used in the previous assay and added to the pre-spotted compound. The enzyme/compound mix was incubated at room temperature for about 3 hours. The peptide substrate containing a fluorophore/quencher pair was diluted in the assay buffer and added to the compound/enzyme mix initiating the reaction. The reaction incubated at room temperature for 45 minutes. A concentrated developer solution was diluted in the assay buffer, and added to the reaction. The reaction was incubated at room temperature for about 15 minutes and relative fluorescence was read on an instrument reader.

HDAC 1 [2] = molecular target: T1, HDAC 1; assay: HDAC 1 fluorogenic peptide substrate assay without preincubation; format: biochemical; settings: no preincubation; read-out: HDAC 1 inhibitory activity (IC50) No preincubation
Procedure: (§2) HDAC inhibitory activity of the compound of Example 1 was measured by two types of assays in which HDAC 1 and 6 were used as a target molecule. The first assay was carried out without preincubation after addition of the enzyme. The test compound was suspended in and titrated in DMSO. It was then spotted into a 384-well test plate. The enzyme, HDAC 1 or 6, was diluted in assay buffer containing 25 mM Tris-HCl (pH 8.0), 137 mM NaCl, 2.7 mM KCl, and 0.01% Tween-20 and added to the pre-spotted compound. The peptide substrate containing a fluorophore/quencher pair was diluted in the same assay buffer and added to the compound/enzyme mix initiating the reaction. The reaction incubated at room temperature for about 45 minutes. A concentrated developer solution was diluted in the assay buffer, and added to the reaction. The reaction was incubated at room temperature for about 15 minutes and relative fluorescence was read on an instrument reader.

HDAC 6 [3] = molecular target: T2, HDAC 6 (Homo sapiens, UniProt Q9UBN7); assay: HDAC 6 fluorogenic peptide substrate assay without preincubation; format: biochemical; settings: no preincubation; read-out: HDAC 6 inhibitory activity (IC50) No preincubation
T2 sequence (Q9UBN7 1-1215): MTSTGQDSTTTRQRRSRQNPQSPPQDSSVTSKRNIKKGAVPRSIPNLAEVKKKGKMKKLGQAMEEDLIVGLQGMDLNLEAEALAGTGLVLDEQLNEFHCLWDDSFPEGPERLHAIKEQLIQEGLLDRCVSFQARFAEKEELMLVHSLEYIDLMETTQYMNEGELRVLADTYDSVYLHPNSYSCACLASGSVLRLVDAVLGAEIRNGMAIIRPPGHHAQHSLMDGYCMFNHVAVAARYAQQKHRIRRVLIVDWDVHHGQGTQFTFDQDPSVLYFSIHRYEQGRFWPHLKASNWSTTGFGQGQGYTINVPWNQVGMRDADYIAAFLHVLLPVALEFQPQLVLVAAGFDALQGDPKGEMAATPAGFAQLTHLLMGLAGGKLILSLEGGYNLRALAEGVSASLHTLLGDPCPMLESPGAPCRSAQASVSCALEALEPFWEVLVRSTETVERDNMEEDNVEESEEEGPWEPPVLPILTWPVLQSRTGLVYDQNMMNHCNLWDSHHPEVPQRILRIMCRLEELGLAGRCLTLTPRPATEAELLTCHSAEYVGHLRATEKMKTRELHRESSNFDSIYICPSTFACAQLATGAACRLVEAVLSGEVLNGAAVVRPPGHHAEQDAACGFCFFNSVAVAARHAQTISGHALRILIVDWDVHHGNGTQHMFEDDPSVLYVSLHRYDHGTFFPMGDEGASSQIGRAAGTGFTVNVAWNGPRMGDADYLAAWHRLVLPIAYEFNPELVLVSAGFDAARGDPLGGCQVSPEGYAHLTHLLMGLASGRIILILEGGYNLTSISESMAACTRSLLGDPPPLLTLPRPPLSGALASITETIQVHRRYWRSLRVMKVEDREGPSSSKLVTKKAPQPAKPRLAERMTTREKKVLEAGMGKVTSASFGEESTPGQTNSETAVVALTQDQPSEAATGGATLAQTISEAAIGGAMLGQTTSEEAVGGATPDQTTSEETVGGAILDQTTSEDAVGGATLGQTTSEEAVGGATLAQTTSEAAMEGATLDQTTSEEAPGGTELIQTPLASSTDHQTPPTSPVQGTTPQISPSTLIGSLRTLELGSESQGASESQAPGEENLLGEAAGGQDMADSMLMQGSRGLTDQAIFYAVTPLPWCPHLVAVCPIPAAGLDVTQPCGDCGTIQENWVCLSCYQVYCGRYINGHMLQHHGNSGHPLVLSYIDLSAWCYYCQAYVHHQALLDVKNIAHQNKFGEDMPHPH
Procedure: as §2

HDAC 6 [4] = molecular target: T2, HDAC 6; assay: HDAC 6 fluorogenic peptide substrate assay with 3-hour enzyme/compound preincubation; format: biochemical; settings: 3-hour preincubation of enzyme and compound; read-out: HDAC 6 inhibitory activity (IC50) 3-hour preincubation
Procedure: as §1

T1 sequence (Q13547 whole entry, species assumed): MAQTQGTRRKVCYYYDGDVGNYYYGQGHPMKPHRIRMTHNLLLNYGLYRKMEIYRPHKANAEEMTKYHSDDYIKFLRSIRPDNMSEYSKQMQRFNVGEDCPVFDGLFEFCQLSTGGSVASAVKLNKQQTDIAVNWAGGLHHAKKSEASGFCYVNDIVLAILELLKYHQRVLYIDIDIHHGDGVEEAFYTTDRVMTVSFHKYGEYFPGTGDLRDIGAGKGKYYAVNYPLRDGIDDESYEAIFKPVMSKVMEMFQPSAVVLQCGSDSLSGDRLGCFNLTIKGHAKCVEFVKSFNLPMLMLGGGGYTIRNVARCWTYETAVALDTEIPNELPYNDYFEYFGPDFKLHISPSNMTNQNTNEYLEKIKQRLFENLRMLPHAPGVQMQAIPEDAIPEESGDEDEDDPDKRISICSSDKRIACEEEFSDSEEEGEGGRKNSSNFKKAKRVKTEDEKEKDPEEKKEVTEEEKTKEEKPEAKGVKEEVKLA

Structure (SMILES): Cc1nc2ccccn2c1-c1nc(Nc2ccc(C(=O)Nc3ccccc3N)cc2)sc1C [Example 6, N-(2-Amino-phenyl)-4-[5-methyl-4-(2-methyl-imidazo[1,2-a]pyridin-3-yl)-thiazol-2-ylamino]-benzamide]
pIC50 (HDAC 1 [1]): 7.67 | melting point: 250.1 °C

Structure (SMILES): Cc1nc2ccccn2c1-c1nc(Nc2ccc(C(=O)NO)cc2)sc1C [Example 5, N-Hydroxy-4-[5-methyl-4-(2-methyl-imidazo[1,2-a]pyridin-3-yl)-thiazol-2-ylamino]-benzamide]
pIC50 (HDAC 1 [1]): 7.27 | melting point: 200.5 °C

Structure (SMILES): Cc1nc2ccccn2c1-c1csc(N(CC(F)(F)F)c2ccc(C(=O)NO)cc2)n1 [Example 21b, N-Hydroxy-4-[[4-(2-methyl-imidazo[1,2-a]pyridin-3-yl)-thiazol-2-yl]-(2,2,2-trifluoro-ethyl)-amino]-benzamide]
pIC50 (HDAC 1 [1]): 5.25

Structure (SMILES): Cc1nc2ccccn2c1-c1csc(Nc2cccc(C(=O)NO)c2)n1 [Example 1, N-Hydroxy-3-[4-(2-methyl-imidazo[1,2-a]pyridin-3-yl)-thiazol-2-ylamino] -benzamide]
pIC50 (HDAC 1 [2]): 5.97 | pIC50 (HDAC 1 [1]): 7.03 | pIC50 (HDAC 6 [3]): 6.50 | pIC50 (HDAC 6 [4]): 6.31 | melting point: 170.4 °C

Structure (SMILES): COc1ccn2c(-c3csc(Nc4ccc(C(=O)Nc5ccccc5N)cc4)n3)c(C)nc2c1 [Example 11, N-(2-Amino-phenyl)-4-[4-(7-methoxy-2-methyl-imidazo[1,2-a]pyridin-3-yl)-thiazol-2-ylamino]-benzamide]
pIC50 (HDAC 1 [1]): 7.24 | melting point: 159.7 °C

Structure (SMILES): Cc1nc2ccccn2c1-c1csc(Nc2ccc(C(=O)NO)cc2)n1 [Example 3, N-Hydroxy-4-[4-(2-methyl-imidazo[1,2-a]pyridin-3-yl)-thiazol-2-ylamino]-benzamide]
pIC50 (HDAC 1 [2]): 7.10 | pIC50 (HDAC 1 [1]): 7.27 | pIC50 (HDAC 6 [3]): 7.33 | pIC50 (HDAC 6 [4]): 7.25 | melting point: 188.3 °C

Structure (SMILES): Cc1nc2ccc(Cl)cn2c1-c1csc(Nc2ccc(C(=O)NO)cc2)n1 [Example 7, 4-[4-(6-Chloro-2-methyl-imidazo[1,2-a]pyridin-3-yl)-thiazol-2-ylamino]-N-hydroxy-benzamide]
pIC50 (HDAC 1 [1]): 7.66

Structure (SMILES): Cc1nc2ccccn2c1-c1csc(Nc2cccc(C(=O)Nc3ccccc3N)c2)n1 [Example 2, N-(2-Amino-phenyl)-3-[4-(2-methyl-imidazo[1,2-a]pyridin-3-yl)-thiazol-2-ylamino]-benzamide]
pIC50 (HDAC 1 [2]): 5.49 | pIC50 (HDAC 1 [1]): 4.38 | pIC50 (HDAC 6 [3]): < 4.30 | pIC50 (HDAC 6 [4]): < 4.30 | melting point: 194.9 to 197 °C

Structure (SMILES): Cc1nc2ccc(C(F)(F)F)cn2c1-c1csc(Nc2ccc(C(=O)Nc3ccccc3N)cc2)n1 [Example 10, N-(2-Amino-phenyl)-4-[4-(2-methyl-6-trifluoromethyl-imidazo[1,2-a]pyridin-3-yl)-thiazol-2-ylamino]-benzamide]
pIC50 (HDAC 1 [1]): 7.23

Structure (SMILES): Cc1nc2ccc(C(F)(F)F)cn2c1-c1csc(Nc2ccc(C(=O)NO)cc2)n1 [Example 9, N-Hydroxy-4-[4-(2-methyl-6-trifluoromethyl-imidazo[1,2-a]pyridin-3-yl)-thiazol-2-ylamino]-benzamide]
pIC50 (HDAC 1 [1]): 6.81 | melting point: 183.2 °C

Structure (SMILES): Cc1nc2ccccn2c1-c1csc(N(CC(F)(F)F)c2ccc(C(=O)Nc3ccccc3N)cc2)n1 [Example 21a, N-(2-Amino-phenyl)-4-[[4-(2-methyl-imidazo[1,2-a]pyridin-3-yl)-thiazol-2-yl]-(2,2,2-trifluoro-ethyl)-amino]-benzamide]
pIC50 (HDAC 1 [1]): 6.83

Structure (SMILES): Cc1sc(Nc2ccc(C(=O)Nc3nn(-c4ccccc4)cc3N)cc2)nc1-c1cnc2ccccn12 [Example 19, N-(4-Amino-1-phenyl-1H-pyrazol-3-yl)-4-(4-imidazo [1,2-a]pyridin-3-yl-5-methyl-thiazol-2-ylamino)-benzamide]
pIC50 (HDAC 1 [1]): 5.22

Structure (SMILES): Cc1sc(Nc2ccc(C(=O)NO)cc2)nc1-c1cnc2ccccn12 [Example 18, N-Hydroxy-4-(4-imidazo[1,2-a]pyridin-3-yl-5-methyl-thiazol-2-ylamino)-benzamide]
pIC50 (HDAC 1 [1]): 7.33 | melting point: 262.6 °C

Structure (SMILES): COc1ccn2c(-c3csc(Nc4ccc(C(=O)NO)cc4)n3)c(C)nc2c1 [Example 12, N-Hydroxy-4-[4-(7-methoxy-2-methyl-imidazo[1,2-a]pyridin-3-yl)-thiazol-2-ylamino]-benzamide]
pIC50 (HDAC 1 [1]): 7.20

Further lines, results first:

pIC50 (HDAC 1 [2]): 5.27 | pIC50 (HDAC 1 [1]): 6.94 | pIC50 (HDAC 6 [3]): 6.74 | melting point: 184.1 °C
Structure (SMILES): O=C(NO)c1cccc(Nc2nc(-c3cnc4ccccn34)cs2)c1 [Example 14, N-Hydroxy-3-(4-imidazo[1,2-a]pyridin-3-yl-thiazol-2-ylamino)-benzamide]

pIC50 (HDAC 1 [2]): 7.07 | pIC50 (HDAC 1 [1]): 7.54 | pIC50 (HDAC 6 [3]): 7.73 | pIC50 (HDAC 6 [4]): 7.77 | melting point: 209.9 °C
Structure (SMILES): O=C(NO)c1ccc(Nc2nc(-c3cnc4ccccn34)cs2)cc1 [Example 13, N-Hydroxy-4-(4-imidazo[1,2-a]pyridin-3-yl-thiazol-2-ylamino)-benzamide]

pIC50 (HDAC 1 [1]): 7.32
Structure (SMILES): Nc1ccccc1NC(=O)c1ccc(Nc2ncc(-c3cnc4ccccn34)s2)cc1 [Example 20, N-(2-Amino-phenyl)-4-(5-imidazo[1,2-a]pyridin-3-yl-thiazol-2-ylamino)-benzamide]

pIC50 (HDAC 1 [1]): 7.43 | pIC50 (HDAC 6 [4]): < 5.00 | melting point: 229.4 °C
Structure (SMILES): Nc1ccccc1NC(=O)c1ccc(Nc2nc(-c3cnc4ccccn34)cs2)cc1 [Example 15, N-(2-Amino-phenyl)-4-(4-imidazo[1,2-a]pyridin-3-yl-thiazol-2-ylamino)-benzamide]

pIC50 (HDAC 1 [1]): 7.29
Structure (SMILES): Cc1nc2ccc(Cl)cn2c1-c1csc(Nc2ccc(C(=O)Nc3ccccc3N)cc2)n1 [Example 8, N-(2-Amino-phenyl)-4-[4-(6-chloro-2-methyl-imidazo[1,2-a]pyridin-3-yl)-thiazol-2-ylamino]-benzamide]

pIC50 (HDAC 1 [1]): 7.61 | melting point: 186.5 °C
Structure (SMILES): Cc1sc(Nc2ccc(C(=O)Nc3ccccc3N)cc2)nc1-c1cnc2ccccn12 [Example 17, N-(2-Amino-phenyl)-4-(4-imidazo[1,2-a]pyridin-3-yl-5-methyl-thiazol-2-ylamino)-benzamide]

pIC50 (HDAC 1 [2]): 6.50 | pIC50 (HDAC 1 [1]): 7.10 | pIC50 (HDAC 6 [3]): < 4.30 | pIC50 (HDAC 6 [4]): < 4.30 | melting point: 161.1 to 165.4 °C
Structure (SMILES): Cc1nc2ccccn2c1-c1csc(Nc2ccc(C(=O)Nc3ccccc3N)cc2)n1 [Example 4, N-(2-Amino-phenyl)-4-[4-(2-methyl-imidazo[1,2-a]pyridin-3-yl)-thiazol-2-ylamino]-benzamide]

pIC50 (HDAC 1 [1]): 5.04
Structure (SMILES): Nc1ncccc1NC(=O)c1ccc(Nc2nc(-c3cnc4ccccn34)cs2)cc1 [Example 16, N-(2-Amino-pyridin-3-yl)-4-(4-imidazo[1,2-a]pyridin-3-yl-thiazol-2-ylamino)-benzamide]
